Results reported in patent US10759766B2, “Certain chemical entities, compositions, and methods” (NeuPharma, Inc., priority 2011, dated 2020).

Tests used:
BRAF V600E = BRAF V600E (Homo sapiens (Human), UniProt P15056, V600E); assay: Z′-LYTE kinase inhibition assay (Invitrogen), BRAF V600E; assay type: biochemical; details: Z′-LYTE method; for inhibition at 1 µM: 1 μM compound, read-out: % inhibition at 1 μM against BRAF V600E
Experimental: (§1) Inhibitory activities Inhibitory activities of compounds against BRAF, and BRAF V600E were measured by Invitrogen using Z′-LYTE® Method as briefly described in the following. 4× Test compounds are dissolved in 1% DMSO. […] ATP solutions are diluted to a 4×ATP working concentration in Kinase Buffer (50 mM HEPES pH 7.5, 0.01% BRIJ-35, 10 mM MgCl2, 1 mM EGTA). Reaction started by 30-second shaking of mixture consisting of 2.5 μL 4× test compound, […] and 2.5 μL 4×ATP Solution on Bar-coded Corning, low volume NBS, black 384-well plate (Corning Cat. #3676). Then the mixture was incubated for 60-minute at room temperature for the kinase reaction, followed by addition of 5 μL of a 1:1024 dilution of development reagent A and 30-second plate shake. The mixture was then incubated for another 60-minute at room temperature for development reaction. Fluorescence was read by plate reader. IC50 was calculated by plotting the concentration of compound vs the percentage of inhibition in treated wells using GraphPad Prism 5.
The scale utilized in Table 3 is as follows: +++ less than 100 nM; and ++ greater than 100 nM.

KDR (VEGFR2) = KDR (VEGFR2) (Homo sapiens (Human), UniProt P35968); assay: Z′-LYTE kinase inhibition assay (Invitrogen), KDR; assay type: biochemical; details: Z′-LYTE method; for inhibition at 1 µM: 1 μM compound, read-out: % inhibition at 1 μM against KDR
KDR (VEGFR2), sequence (P35968 20-1356): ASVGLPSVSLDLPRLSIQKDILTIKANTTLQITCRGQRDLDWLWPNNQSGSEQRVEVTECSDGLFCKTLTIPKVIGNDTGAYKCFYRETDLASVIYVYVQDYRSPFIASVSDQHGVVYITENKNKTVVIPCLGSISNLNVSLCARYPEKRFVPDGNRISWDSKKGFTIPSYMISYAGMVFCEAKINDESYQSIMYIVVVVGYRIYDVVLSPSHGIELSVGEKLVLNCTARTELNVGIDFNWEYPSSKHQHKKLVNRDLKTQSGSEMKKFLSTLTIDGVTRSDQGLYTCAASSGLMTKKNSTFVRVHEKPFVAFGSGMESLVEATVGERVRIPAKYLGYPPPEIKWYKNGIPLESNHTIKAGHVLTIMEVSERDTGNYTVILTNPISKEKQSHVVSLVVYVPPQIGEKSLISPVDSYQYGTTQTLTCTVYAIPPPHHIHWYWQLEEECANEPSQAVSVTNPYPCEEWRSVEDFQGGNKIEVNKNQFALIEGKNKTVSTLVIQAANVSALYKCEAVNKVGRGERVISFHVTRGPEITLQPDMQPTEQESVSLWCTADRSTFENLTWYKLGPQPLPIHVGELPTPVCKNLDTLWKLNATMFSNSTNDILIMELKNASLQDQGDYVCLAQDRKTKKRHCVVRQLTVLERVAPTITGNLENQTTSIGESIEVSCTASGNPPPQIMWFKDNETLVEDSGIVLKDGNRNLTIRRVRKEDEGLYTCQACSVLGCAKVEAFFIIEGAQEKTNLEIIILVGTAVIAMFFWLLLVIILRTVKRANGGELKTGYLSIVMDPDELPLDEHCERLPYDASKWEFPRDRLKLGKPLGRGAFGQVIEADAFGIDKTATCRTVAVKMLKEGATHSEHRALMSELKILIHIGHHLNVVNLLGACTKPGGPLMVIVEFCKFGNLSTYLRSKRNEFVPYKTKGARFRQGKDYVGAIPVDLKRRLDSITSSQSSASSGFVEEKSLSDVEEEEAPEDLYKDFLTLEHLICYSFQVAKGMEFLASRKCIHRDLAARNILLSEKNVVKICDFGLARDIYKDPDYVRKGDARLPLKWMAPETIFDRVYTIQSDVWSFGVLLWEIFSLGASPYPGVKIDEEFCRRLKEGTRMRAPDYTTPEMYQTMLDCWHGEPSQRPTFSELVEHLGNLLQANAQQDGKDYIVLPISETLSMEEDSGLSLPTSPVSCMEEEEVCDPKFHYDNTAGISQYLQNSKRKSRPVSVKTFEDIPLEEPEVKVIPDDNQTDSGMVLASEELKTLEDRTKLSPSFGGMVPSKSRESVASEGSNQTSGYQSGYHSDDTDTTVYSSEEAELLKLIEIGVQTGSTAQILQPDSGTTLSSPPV
Experimental: as §1
Inhibitory activities of compounds against KDR (VEGFR2) were also measured by Invitrogen using Z′-LYTE® Method as described above with the following modification. The 2× KDR (VEGFR2)/Tyr 01 mixture is prepared in 50 mM HEPES pH 7.5, 0.01% BRIJ-35, 10 mM MgCl2, 1 mM EGTA. The final 10 μL Kinase Reaction consists of 0.5-11.7 ng KDR (VEGFR2) and 2 μM Tyr 01 in 50 mM HEPES pH 7.5, 0.01% BRIJ-35, 10 mM MgCl2, 1 mM EGTA. After the 1 hour Kinase Reaction incubation, 5 μL of a 1:256 dilution of Development Reagent B is added.
The scale utilized in Table 5 is as follows: +++ less than 100 nM; and ++ greater than 100 nM

A375 cells = assay: Inhibition of cancer cell growth, MTT assay, A375; assay type: cell-based; details: Homo sapiens, A-375, 72 h exposure
Experimental: (§2) Inhibition of cell growth by compounds was measured using MTT assay (Mosmann, T., Journal of Immunological Methods, 1983, 65, 55-63). Tumor cell lines were purchased from ATCC (American Type Culture Collection, Manassas, Va.). All cell lines were maintained in RPMI 1640 (Hyclone) supplemented with 10% fetal bovine serum (FBS, Hyclone), glutamine (2 mM, Hyclone), and antibiotics (penicillin 100 U/mL and streptomycin 50 μg/mL) at 37° C. in a humidified atmosphere of 5% CO2 in air. Taxol (as a positive control, Sigma) and compounds were dissolved in DMSO (Sigma), and the final concentration of DMSO in the medium was 1%. Tumor cells were plated in 96-well plates at densities of about 4000 cells/well of a 96-well plate and allowed to adhere/grow for 24 h. They were then treated with various concentrations of drug for 72 h. 3-(4,5-Dimethylthiazol-2-yl)-2,5-diphenyltetrazolium bromide (MTT, Sigma) was used to determine the number of viable cells at the time of compound addition and the number of cells remaining after 72 h compound exposure. The number of cells remaining after 72 h was compared to the number of viable cells at the time of compound addition by measuring the absorbance at 570 nm, allowing for the calculation of growth inhibition.
(§3) All concentrations of compounds were tested in triplicate and controls were averaged over 4 wells. IC50 was calculated by plotting the concentration of compound vs the percentage of inhibition in treated wells using GraphPad Prism 5. […] The scale utilized in Table 6 is as follows: +++ less than 1000 nM; ++ between 1000 nM and 5000 nM; and + greater than 5000 nM. The scale utilized in Table 7 is as follows: +++ less than 2000 nM; ++ between 2000 nM and 5000 nM; and + greater than 5000 nM.

A549 cells = assay: Inhibition of cancer cell growth, MTT assay, A549; assay type: cell-based; details: Homo sapiens, A549, 72 h exposure
Experimental: as §2, §3

BRAF V600E, sequence (P15056 whole entry V600E): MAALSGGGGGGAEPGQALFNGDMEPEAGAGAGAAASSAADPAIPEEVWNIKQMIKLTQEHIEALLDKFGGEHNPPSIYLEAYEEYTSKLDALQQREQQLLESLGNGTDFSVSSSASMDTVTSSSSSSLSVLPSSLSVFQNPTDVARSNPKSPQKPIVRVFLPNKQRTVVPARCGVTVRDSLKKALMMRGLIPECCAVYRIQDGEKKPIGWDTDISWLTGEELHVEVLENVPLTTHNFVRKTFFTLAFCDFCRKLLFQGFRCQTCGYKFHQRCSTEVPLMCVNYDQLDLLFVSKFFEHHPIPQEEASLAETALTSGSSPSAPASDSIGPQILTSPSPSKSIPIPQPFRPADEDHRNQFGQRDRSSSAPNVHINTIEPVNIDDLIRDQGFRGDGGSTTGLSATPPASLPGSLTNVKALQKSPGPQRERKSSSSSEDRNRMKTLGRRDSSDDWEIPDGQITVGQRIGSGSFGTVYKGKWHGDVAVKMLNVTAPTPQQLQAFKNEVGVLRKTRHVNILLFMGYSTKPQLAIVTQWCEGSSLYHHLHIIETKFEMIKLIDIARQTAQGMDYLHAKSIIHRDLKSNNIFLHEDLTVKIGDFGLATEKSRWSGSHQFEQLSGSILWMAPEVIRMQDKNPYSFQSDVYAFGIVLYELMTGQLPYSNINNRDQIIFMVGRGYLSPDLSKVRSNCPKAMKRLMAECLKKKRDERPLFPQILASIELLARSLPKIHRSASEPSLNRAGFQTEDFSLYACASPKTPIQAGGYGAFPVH

Structure (SMILES)	inhibition at 1 µM (BRAF V600E)	inhibition at 1 µM (KDR (VEGFR2))	IC50 (A375 cells)	IC50 (A549 cells)	IC50 (BRAF V600E; read-out: IC50 against BRAF V600E)	IC50 (KDR (VEGFR2); read-out: IC50 against KDR)
O=C(Nc1cc(F)c(F)c(C(=O)c2ccc3nccnc3c2)c1)c1cccc(F)c1 [Compound C131, N-(3,4-difluoro-5-(quinoxaline-6-carbonyl)phenyl)-3-fluorobenzamide]	> 89%	< 70%	> 5 µM	> 5 µM		
O=C(Nc1cc(F)cc(C(=O)c2ccc3nccnc3c2)c1)c1ccc(Cl)c(C(F)(F)F)c1 [Compound C127, 4-chloro-N-(3-fluoro-5-(quinoxaline-6-carbonyl)phenyl)-3-(trifluoromethyl)benzamide]	70 to 89%	< 70%	> 5 µM	> 5 µM		
O=C(Nc1cccc(F)c1)Nc1cccc(C(=O)c2ccc3ncc(N4CCCC4)nc3c2)c1 [Compound C019, 1-(3-fluorophenyl)-3-(3-(3-(pyrrolidin-1-yl)quinoxaline-6-carbonyl)phenyl)urea]	> 89%	> 89%	> 5 µM	> 5 µM	< 0.1 µM	< 0.1 µM
O=C(Nc1cc(F)cc(C(=O)c2ccc3ncc(N4CCOCC4)nc3c2)c1)c1cccc(F)c1 [Compound C142, 3-fluoro-N-(3-fluoro-5-(3-morpholinoquinoxaline-6-carbonyl)phenyl)benzamide]	70 to 89%	70 to 89%	1 to 5 µM	2 to 5 µM		
O=C(Nc1cc(F)cc(C(=O)c2ccc3ncc(N4CCOCC4)nc3c2)c1)Nc1ccc(Cl)c(Cl)c1 [Compound C050, 1-(3,4-dichlorophenyl)-3-(3-fluoro-5-(3-morpholinoquinoxaline-6-carbonyl)phenyl)urea]	> 89%	70 to 89%	< 1 µM	< 2 µM		
O=C(Nc1ccc(C(F)(F)F)cc1)Nc1cc(F)cc(C(=O)c2ccc3nccnc3c2)c1 [Compound C066, 1-(3-fluoro-5-(quinoxaline-6-carbonyl)phenyl)-3-(4-(trifluoromethyl)phenyl)urea]	> 89%	< 70%	1 to 5 µM	2 to 5 µM		
O=C(Nc1cccc(C(=O)c2ccc3ncc(N4CCCC4)nc3c2)c1)Nc1ccc(Cl)c(C(F)(F)F)c1 [Compound C021, 1-(4-chloro-3-(trifluoromethyl)phenyl)-3-(3-(3-(pyrrolidin-1-yl)quinoxaline-6-carbonyl)phenyl)urea]	70 to 89%	> 89%	1 to 5 µM	> 5 µM		
O=C(Nc1ccc(F)c(C(=O)c2ccc3nccnc3c2)c1)c1cccc(F)c1 [Compound C115, 3-fluoro-N-(4-fluoro-3-(quinoxaline-6-carbonyl)phenyl)benzamide]	> 89%	70 to 89%	> 5 µM	> 5 µM		
O=C(Nc1cc(F)cc(Cl)c1)Nc1ccc(F)c(C(=O)c2ccc3nccnc3c2)c1 [Compound C078, 1-(3-chloro-5-fluorophenyl)-3-(4-fluoro-3-(quinoxaline-6-carbonyl)phenyl)urea]	> 89%	70 to 89%	1 to 5 µM	2 to 5 µM		
O=C(Nc1cc(F)cc(C(=O)c2ccc3nccnc3c2)c1)Nc1cccc(C(F)(F)F)c1 [Compound C027, 1-(3-fluoro-5-(quinoxaline-6-carbonyl)phenyl)-3-(3-(trifluoromethyl)phenyl)urea]	> 89%	70 to 89%	> 5 µM	< 2 µM		
O=C(Nc1cc(F)cc(C(=O)c2ccc3nccnc3c2)c1)Nc1ccc(F)c(Cl)c1 [Compound C067, 1-(3-chloro-4-fluorophenyl)-3-(3-fluoro-5-(quinoxaline-6-carbonyl)phenyl)urea]	> 89%	< 70%	1 to 5 µM	2 to 5 µM		
O=C(Nc1cccc(Cl)c1)Nc1ccc(F)c(C(=O)c2ccc3ncc(N4CCOCC4)nc3c2)c1 [Compound C056, 1-(3-chlorophenyl)-3-(4-fluoro-3-(3-morpholinoquinoxaline-6-carbonyl)phenyl)urea]	> 89%	> 89%	< 1 µM	2 to 5 µM		
O=C(Nc1cc(F)c(F)c(C(=O)c2ccc3ncc(N4CCOCC4)nc3c2)c1F)c1cccc(C(F)(F)F)c1 [Compound C138, N-(2,4,5-trifluoro-3-(3-morpholinoquinoxaline-6-carbonyl)phenyl)-3-(trifluoromethyl)benzamide]	70 to 89%	> 89%	1 to 5 µM	> 5 µM		
O=C(Nc1ccc(F)cc1)Nc1cc(F)cc(C(=O)c2ccc3nccnc3c2)c1 [Compound C064, 1-(3-fluoro-5-(quinoxaline-6-carbonyl)phenyl)-3-(4-fluorophenyl)urea]	> 89%	< 70%	> 5 µM	> 5 µM		
O=C(Nc1cc(F)c(F)c(C(=O)c2ccc3ncc(N4CCOCC4)nc3c2)c1F)c1ccc(Cl)c(C(F)(F)F)c1 [Compound C139]	< 70%	< 70%	> 5 µM	> 5 µM		
O=C(Nc1ccc(Cl)c(Cl)c1)Nc1ccc(F)c(C(=O)c2ccc3ncc(N4CCOCC4)nc3c2)c1 [Compound C058, 1-(3,4-dichlorophenyl)-3-(4-fluoro-3-(3-morpholinoquinoxaline-6-carbonyl)phenyl)urea]	> 89%	> 89%	< 1 µM	< 2 µM		
O=C(Nc1cccc(F)c1)Nc1cc(F)c(F)c(C(=O)c2ccc3ncc(N4CCOCC4)nc3c2)c1F [Compound C033, 1-(3-fluorophenyl)-3-(2,4,5-trifluoro-3-(3-morpholinoquinoxaline-6-carbonyl)phenyl)urea]	70 to 89%	< 70%	1 to 5 µM	2 to 5 µM		
O=C(Nc1cc(F)c(F)c(C(=O)c2ccc3nccnc3c2)c1)c1cccc(C(F)(F)F)c1 [Compound C128, N-(3,4-difluoro-5-(quinoxaline-6-carbonyl)phenyl)-3-(trifluoromethyl)benzamide]	> 89%	70 to 89%	1 to 5 µM	> 5 µM		
O=C(Nc1cc(F)c(F)c(C(=O)c2ccc3nccnc3c2)c1)c1ccc(Cl)c(C(F)(F)F)c1 [Compound C129, 4-chloro-N-(3,4-difluoro-5-(quinoxaline-6-carbonyl)phenyl)-3-(trifluoromethyl)benzamide]	> 89%	70 to 89%	1 to 5 µM	> 5 µM		
O=C(Nc1ccc(Cl)cc1)Nc1cc(F)cc(C(=O)c2ccc3ncc(N4CCOCC4)nc3c2)c1 [Compound C045, 1-(4-chlorophenyl)-3-(3-fluoro-5-(3-morpholinoquinoxaline-6-carbonyl)phenyl)urea]	> 89%	< 70%	< 1 µM	2 to 5 µM		
